In US8129527B2, “Analogs of dehydrophenylahistins and their therapeutic use” (Nereus Pharmacuticals, Inc., priority 2006, dated 2012):
≈ marks a conversion by molar mass, not a printed value. Where “and” joins values, the source holds several entries; their conditions need not be identical. Equal values may be shown once. Each block holds one molecule with its values, some of them ahead of it.

How the values were obtained:
[1] = system: HT-29 human colorectal carcinoma cells; assay: Cell growth inhibition assay, resazurin (Table 3.2); assay type: cell-based; settings: Table 3.2, HT-29 cells, read-out: EC50 (M) Mean
In short: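 HT-29 cells seeded at 5×10^3/well overnight, then exposed in triplicate to compounds at final 20 μM to […] (0.25% DMSO) for 48 h at 37° C. Viability read by resazurin reduction after 3-4 h further incubation, with cell-free dye background subtracted.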

[2] = system: B16-F10 melanoma; assay: Cell growth inhibition assay, resazurin (Example 11); assay type: cell-based; settings: Mus musculus, 48 hours, mean ± SD where n ≧ 3
Method: (§1) The growth inhibitory activity of NPI-2421, NPI-2463, NPI-2503 and NPI-2504 were determined against selected human (colorectal adenocarcinoma, HT-29; breast adenocarcinoma, MDA-MB-231; non-small cell lung carcinoma, NCI-H292 and prostate carcinomas, PC-3 and DU 145) and mouse (melanoma, B16-F10) tumor cell lines.
(§2) HT-29 (HTB-38), MDA-MB-231 (HTB-26), NCI-H292 (CRL-1848), B16-F10 (CRL-6475), PC-3 (CRL-1435) and DU 145 (HTB-81) cells were all purchased from the ATCC. The cell lines were maintained in their respective ATCC recommended culture media and cultured in an incubator at 37° C. in 5% CO2 and 95% humidified air.
(§3) 20 mM stock solutions of compounds were prepared in 100% DMSO and stored at −80° C. 10× concentrated serial dilutions of the compounds were prepared in B16-F10 cell culture medium for final concentrations ranging from 20 μM to […]. Ten μl volumes of the 10× serial dilutions were added to the test wells in triplicate and the plates returned to the incubator for 48 hours. The final concentration of DMSO was 0.25% in all samples.
(§4) Following 48 hours of drug exposure, 10 μl of 0.2 mg/ml resazurin (obtained from Sigma-Aldrich Chemical Co.) in Mg^2+, Ca^2+ free phosphate buffered saline was added to each well and the plates were returned to the incubator for 3-6 hours. […] Resazurin dye in medium without cells was used to determine the background, which was subtracted from the data for all experimental wells.

[3] = system: HT-29 colorectal adenocarcinoma; assay: as above; assay type: cell-based; settings: Homo sapiens, 48 hours, mean ± SD where n ≧ 3
Method: as §1, §2, §3, §4

[4] = system: MDA-MB-231 breast adenocarcinoma; assay: as above; assay type: cell-based; settings: Homo sapiens, 48 hours, mean ± SD where n ≧ 3
Method: as §1, §2, §3, §4

[5] = system: NCI-H292 non-small cell lung carcinoma; assay: as above; assay type: cell-based; settings: Homo sapiens, 48 hours, mean ± SD where n ≧ 3, ** n = 1
Method: as §1, §2, §3, §4

[6] = system: PC-3 prostate carcinoma; assay: as above; assay type: cell-based; settings: Homo sapiens, 48 hours, mean ± SD where n ≧ 3, ** n = 1
Method: as §1, §2, §3, §4

[7] = system: MES-SA human uterine sarcoma; assay: as above; assay type: cell-based; settings: mean ± standard deviation of three independent experiments
Method: (§5) Human uterine sarcoma (MES-SA; CRL-1976), its multidrug resistant derivative (MES-SA/Dx5; CRL-1977), human acute promyelocytic leukemia cells (HL-60; CCL-240) and its multidrug resistant derivative (HL-60/MX2; CRL-2257) were purchased from ATCC and maintained in appropriate culture media. The cells were cultured in an incubator at 37° C. in 5% CO2 and 95% humidified air.
(§6) For cell growth inhibition assays, MES-SA and MES-SA/Dx5 cells were both seeded at 3×10^3 cells/well in 90 μl complete media into 96 well (Corning; 3904) black-walled, clear-bottom tissue culture plates and the plates were incubated overnight to allow cells to establish and enter log phase growth. HL-60 and HL-60/MX2 cells were both seeded at 5×10^4 cells/well in 90 μl complete media into 96 well plates on the day of compound addition. 20 mM stock solutions of the compounds were prepared in 100% DMSO and stored at −80° C. […] Ten μl volumes of the 10× serial dilutions were added to the test wells in triplicate and the plates returned to the incubator for 48 hours. The final concentration of DMSO was 0.25% in all samples.
as §4
(§7) The multidrug resistant MES-SA/Dx5 tumor cell line was derived from the human uterine sarcoma MES-SA tumor cell line and expresses elevated P-Glycoprotein (P-gp), an ATP dependent efflux pump. The data in Table 19 summarize the growth inhibitory effects of NPI-2421, NPI-2463, NPI-2503, NPI-2504 and NPI-2506 against MES-SA and its multidrug resistant derivative MES-SA/Dx5. Paclitaxel, a known substrate of the P-gp pump was included as a control.

[8] = system: MES-SA/Dx5 multidrug resistant; assay: as above; assay type: cell-based, human
Method: as §5, §6, §4, §7

[9] = system: HL-60 human acute promyelocytic leukemia cells; assay: as above; assay type: cell-based; settings: mean values of two independent experiments
Method: as §5, §6, §4
(§8) HL-60/MX2 is a multidrug resistant tumor cell line derived from the human promyelocytic leukemia cell line, HL-60 and expresses reduced topoisomerase II activity. The data presented in Table 20 summarize the growth inhibitory effects of NPI-2421, NPI-2463, NPI-2503, NPI-2504 and NPI-2506 against HL-60 and its multidrug resistant derivative HL-60/MX2. Mitoxantrone, the topoisomerase II targeting agent was included as a control.

[10] = system: HL-60/MX2 multidrug resistant; assay: as above; assay type: cell-based, human
Method: as §5, §6, §4, §8

[11] = system: MES-SA (Taxol Sensitive) human uterine sarcoma; assay: Drug resistant cell line pair, cytotoxicity (Example 10B); assay type: cell-based; settings: IC50 CsA Pretreat relative to No CsA
Text: (§9) 1) Human Uterine Sarcoma Tumor Cell Line Pair: MES-SA (Taxol Sensitive) and MES-SA/Dx5 (Taxol Resistant).

[12] = system: MES-SA/Dx5 (Taxol Resistant) human uterine sarcoma; assay: as above; assay type: cell-based
Text: as §9

[13] = system: MCF-7 (Taxol Sensitive) human breast carcinoma; assay: as above; assay type: cell-based
Text: (§10) 3). Human Breast Carcinoma Cell Line Pair: MCF-7 (Taxol Sensitive) and MCF-7/ADR (Taxol Resistant)

[14] = system: MCF-7/ADR (Taxol Resistant) human breast carcinoma; assay: as above; assay type: cell-based
Text: as §10

[15] = system: HuVEC; assay: Action on microtubule function, α-tubulin staining; settings: 2 μM, thirty minutes exposure
[16] = system: Aspergillus fumigatus; assay: Antifungal susceptibility testing, broth dilution (MIC/MFC); assay type: cell-based; settings: Aspergillus fumigatus, A. fumigatus isolate #2; read-out: MIC
Method: (§11) Specifically, disclosed compounds were evaluated alongside commercially available microtubulin inhibitors as well as recognized antifungal agents.
(§12) Microorganisms against which these compounds were tested included: Candida albicans, Candida glabrata, Aspergillus fumigatus, Trichophyton rubrum, Trichophyton mentagrophytes, Epidermophyton floccosum. With the exception of Candida glabrata (one isolate), two isolates of each species were tested.
(§13) The minimum lethal concentration (MLC) was determined by plating […] from the MIC concentration and each concentration above the MIC. […] When a MIC was obtained, a minimum fungicidal concentration (MFC) was determined to assess the fungistatic/fungicidal nature of the compound.

[17] = system: Trichophyton rubrum; assay: as above; assay type: cell-based; settings: Trichophyton rubrum
Method: as §11, §12, §13

[18] = system: Epidermophyton floccosum; assay: as above; assay type: cell-based
Method: (§14) Specifically, disclosed compounds were evaluated alongside commercially available microtubulin inhibitors as well as recognized antifungal agents. […].
as §12
(§15) Drug concentrations were 0.03-16 μg/ml for the investigational compounds, 0.015-8 μg/ml for itraconazole and griseofulvin.
as §13, with “compound. […] The compound is scored as fungistatic if the cells are able to resume growth and fungicidal if no regrowth is possible because the compound had killed the organisms.” for “compound.”

[19] = system: Trichophyton mentagrophytes; assay: as above; assay type: cell-based; settings: Trichophyton mentagrophytes
Method: as §14, §12, §15
as §13, with “compound. […] The compound is scored as fungistatic if the cells are able to resume growth and fungicidal if no regrowth is possible because the compound had killed the organisms.” for “compound.”

EC50 [1]: 1.48e-08 M
EC50 [2]: 0.014 ± 0.003 µM
EC50 [3]: 0.011 µM
EC50 [4]: 0.017 µM
EC50 [5]: 0.042 µM
EC50 [6]: > 2 µM
EC50 [7]: 0.013 ± 0.003 µM
EC50 [9]: 0.03 µM
EC50 ([10]; Homo sapiens, HL60/MX2, HL-60/MX2, mean values of two independent experiments): 0.013 µM
Compound: CC(C)(C)c1ocnc1/C=c1\[nH]c(=O)/c(=C/c2c(F)c(F)cc(F)c2F)[nH]c1=O [Compound 2504, tBu-oxadelta-PLH-2,3,5,6-tetrafluoro]
EC50 ([8]; Homo sapiens, MES-SA/Dx5, mean ± standard deviation of three independent experiments): 0.014 ± 0.003 µM
cytotoxic activity against both MES-SA and MES-SA/Dx5 ([8]; in words): retained equivalent cytotoxic activity
Fold change ([8]; ratio of EC50 values (MES-SA/Dx5:MES-SA)): 1.1
cytotoxic activity against both HL-60 and HL-60/MX2 ([10]; in words): retained cytotoxic activity
Fold change ([10]; ratio of EC50 values (HL-60/MX2:HL-60)): 0.4

Compound: CC(=O)O[C@H]1C(=O)[C@@]2(C)[C@H]([C@H](OC(=O)c3ccccc3)[C@]3(O)C[C@H](OC(=O)[C@H](O)[C@@H](NC(=O)c4ccccc4)c4ccccc4)C(C)=C1C3(C)C)[C@]1(OC(C)=O)CO[C@@H]1C[C@@H]2O [Taxol, reference compound]
Ratio No CsA [11]: 0.6 and 0.4
effect of Cyclosporin A (CsA) treatment ([12]; CsA pretreatment): restored the sensitivity to taxol
potency in the resistant MES-SA/DX5 line vs the sensitive line ([12]; in words): virtually inactive
IC50 ([13]; Homo sapiens, MCF7/Taxol, Table 15, read-out: MCF-7 Sensitive IC50): 0.0026 µM
potency in the sensitive MCF-7 cell line ([13]; in words): low nanomolar potency
IC50 ([14]; Homo sapiens, NCI/ADR-RES, read-out: MCF-7/ADR Resistant IC 50 nM, Table 15): > 100 nM
MCF-7/ADR Resistant Ratio to Sensitive ([14]; Table 15): >>38
potency in resistant MCF-7/ADR vs sensitive MCF-7 ([14]; in words): virtually inactive in the resistant cell line
microtubule depolymerization in HuVEC cells [15]: did not induce microtubule depolymerization

MIC [16]: 0.5 µg/mL (≈ 1.42 µM)
MIC ([17]; T. rubrum isolate #1): 0.5 µg/mL (≈ 1.42 µM)
MIC ([17]; T. rubrum isolate #2): < 0.015 µg/mL
MIC ([18]; E. floccosum isolate #1): 2 µg/mL (≈ 5.67 µM)
MIC ([18]; E. floccosum isolate #2): 4 µg/mL (≈ 11.3 µM)
MIC ([19]; T. mentagrophytes isolate #1): 1 µg/mL (≈ 2.83 µM)
MIC ([19]; T. mentagrophytes isolate #2): 2 µg/mL (≈ 5.67 µM)
Compound: COC1=CC(=O)C[C@@H](C)[C@]12Oc1c(Cl)c(OC)cc(OC)c1C2=O [griseofulvin, Griseofulvin, reference compound]
